Among the data in US20210023238A1, “TRIPTOLIDE ANTIBODY CONJUGATES” (City of Hope, priority 2019, published 2021) are IC50 values, retold here.

Holding throughout (assay type): cell-based
In one assay the test system is A549 NSCLC cells. As to the kind of experiment: CCK-8 cell proliferation / cytotoxicity, A549. Conditions: Homo sapiens, A549 (EGFR+++), 72 h. How it is done:
(§1) H520, H1299, and A549 cells were plated at a density of 3×10^3 cells/well in 96-well multiplates. […] Then after, 10 ul of CCK-8 solution was added to each well and further developed for 2 h. The absorbance values were detected at a wavelength of 450 nm using a Bio-Rad microplate reader. The cell viability was calculated by the optical density (OD) values of treated groups/OD values of control groups (Vehicle/PBS)×100%.

The subject of a further assay is H1299 NSCLC cells. Put plainly: CCK-8 cell proliferation / cytotoxicity, H1299. Particulars: Homo sapiens, NCI-H1299, H1299 (EGFR+++), 72 h. The procedure: as §1
A further assay has as its system H520 NSCLC cells. As to the kind of experiment: CCK-8 cell proliferation / cytotoxicity, H520. Particulars: Homo sapiens, NCI-H520, H520 (EGFR+/-), 72 h. The procedure:
as §1

Regarding `CC(C)[C@]12O[C@H]1[C@@H]1O[C@]13[C@]1(O[C@H]1C[C@H]1C4=C(CC[C@@]13C)C(=O)OC4)[C@@H]2O` [TRP, Triptolide], the half-maximal inhibitory concentration (IC50) in the assay with A549 NSCLC cells was 25 to 50 nM; in the assay on H1299 NSCLC cells, 6.25 to 12.5 nM; in the assay on H520 NSCLC cells it was 3.13 nM.

One may read the IC50 as the concentration needed to halve the response being measured. High values mean weaker potency, low ones greater potency.
